# How the values were obtained:
# [1] = Half-life in liver microsomes (Example 4); type: in vitro ADME; settings: rat and human liver microsomes, species of the value not stated
# Description: Metabolic pathways that may disrupt the activity of compounds with aryl methoxy groups were investigated.
# mice, step-down latency = experiment: Sedation assessment; type: in vivo, mouse; settings: 3 mg/kg i.p.
# Experimental: The degree of sedation was measured by the latency for a mouse to completely step down from a slightly (3 cm) raised plastic platform (11×8 cm) by reference to a previous report (Horan et al. 1991). The mouse was placed on the platform 15 min after receiving i.p. Injection of the tested drug. The latency (in sec) for the mouse to step down the platform with all four paws was recorded. The baseline latency of each mouse before drug treatment was measured and, if longer than 15 sec, the mouse was discarded from the study. A cut-off time of 60 sec was taken as the maximal sedative effect. The percentage of sedation was calculated by the formula: sedation %=(test latency−baseline latency)/(60−baseline latency)×100%.
# [2] = tested on: mice, apomorphine-induced stereotypy climbing; experiment: Apomorphine-induced stereotypy behaviors; type: in vivo, mouse; settings: 3 mg/kg i.p., apomorphine 1 mg/kg s.c.
# Experimental: The mouse was placed into a lidded cylindrical cage (diameter: 12 cm; height: 14 cm) made with 1 cm-separated metal grids for 1 hour's habituation. Then, the mouse received apomorphine (1 mg/kg, s.c.) Injection. The behaviors of the mouse were videotaped, and the stereotypy behaviors were scored every 5 min for 1 min, starting from 15 min before apomorphine injection until 60 min after injection.
# The stereotypy behaviors induced by apomorphine were scored by reference to a previous report (Park et al. 2003) with modifications as the followings: 0: normal behaviors (sleeping, normal sniffing); 1: increased activity and sniffing (grooming, rearing, paw licking, jumping); 2: occasional clinging to the side wall of the cage with forepaws; 3: intermittent clinging to the top lid of the cage with all four paws; 4: uninterrupted climbing with all four paws to the top lid. The highest rating score during the 1 min-recording period was counted.
# [3] = tested on: mice, forelimb grip strength; experiment: Grip strength test; type: in vivo, mouse; settings: 3 mg/kg, 15 min after treatment
# Experimental: Forelimb grip strength was measured by the grip force of forepaws of the mouse using the sdi grip strength system (San Diego Instrument, San Diego, Calif.). The grip strength was recorded by the maximum of three permissible readings (in grams). The test was conducted every 2 min for three times, and the averaged grip strength was recorded. Animals were treated with the tested drug or vehicle for 15 min before the test.
# [4] = Pharmacokinetic study in mice, plasma and brain; type: in vivo, mouse; settings: nanoemulsion
# Experimental: Five pharmacokinetic studies have been performed; four in male Wistar rats and one in male Swiss mice. […] At predetermined time intervals, i.e., 5, 20, 60, 180, and 720 min after dosing, the blood and brain samples of the rat were collected. […] At predetermined time intervals, i.e., 5, 20, 40, 120, and 360 min, the blood and brain samples of the mouse were collected.
# α1,4,6β3δ receptors = molecular target: T1, α1,4,6β3δ receptors (Rattus norvegicus, UniProt P30191+P63079); experiment: Electrophysiology in Xenopus oocytes, delta-containing receptors; type: cell-based; settings: measured at EC20
# T1 construct: expressed in transfected cells; host or cells: Xenopus laevis oocytes injected with subunit mRNA (3:1:5)
# Experimental: Mature female Xenopus laevis (Nasco, Fort Atkinson, Wis., USA) were anaesthetized in a bath of ice-cold 0.17% Tricain (Ethyl-m-aminobenzoat, Sigma-Aldrich, St. Louis, Mo., USA) before decapitation and transfer of the frog's ovary to ND96 medium (96 mM NaCl, 2 mM KCl, 1 mM MgCl2, 5 mM HEPES; pH 7.5). Following incubation in 1 mg/mL collagenase (Sigma-Aldrich, St. Louis, Mo., USA) for 30 min, stage 5 to 6 oocytes were singled out of the ovary and defolliculated using a platinum wire loop. Oocytes were stored and incubated at 18° C. in NDE medium (96 mM NaCl, 2 mM KCl, 1 mM MgCl2, 5 mM HEPES, 1.8 mM CaCl2; pH 7.5) that was supplemented with 100 U per mL-1 penicillin, 100 μg per mL-1 streptomycin and 2.5 mM pyruvate. Oocytes were injected with an aqueous solution of mRNA. A total of 2.5 ng of mRNA per oocyte was injected. Subunit ratio was 1:1:5 for αxβγ2 (x=1, 2, 3, 5) and 3:1:5 for α4/6β3γ2 and αβδ receptors. Injected oocytes were incubated for at least 36 h before electrophysiological recordings. Oocytes were placed on a nylon-grid in a bath of NDE medium. For current measurements, the oocytes were impaled with two microelectrodes (2-3MΩ), which were filled with 2 M KCl. The oocytes were constantly washed by a flow of 6 mL per min-1 NDE that could be switched to NDE containing GABA and/or drugs. […] All recordings were performed at room temperature at a holding potential of −60 mV using a Warner OC-725C TEV (Warner Instrument, Hamden, Conn., USA) or a Dagan CA-1B Oocyte Clamp or a Dagan TEV-200A TEV (Dagan Corporation, Mineapolis, Minn., USA). Data were digitized using a Digidata 1322A or 1550 data acquisition system (Axon Instruments, Union City, Calif., USA), recorded using Clampex 10.5 software (Molecular Devices, Sunnyvale, Calif., USA), and analyzed using Clampfit 10.5 and GraphPad Prism 6.0 (La Jolla, Calif., USA) software. Concentration-response data were fitted using the Hill equation. Data are given as mean±SEM from at least three oocytes of two batches.
# For selected test compounds full dose response curves were recorded in α1-6β3γ2 receptors. For selected compounds, dose response curves in additional receptor subtypes (α1, 4, 6β3δ, α6β1, 2γ2, α1-6β3) were also obtained. For a wider panel of compounds, a two point screening pharmacology was obtained at 1 and 10 μM compound concentrations.
# T1 sequence (P30191 20-453): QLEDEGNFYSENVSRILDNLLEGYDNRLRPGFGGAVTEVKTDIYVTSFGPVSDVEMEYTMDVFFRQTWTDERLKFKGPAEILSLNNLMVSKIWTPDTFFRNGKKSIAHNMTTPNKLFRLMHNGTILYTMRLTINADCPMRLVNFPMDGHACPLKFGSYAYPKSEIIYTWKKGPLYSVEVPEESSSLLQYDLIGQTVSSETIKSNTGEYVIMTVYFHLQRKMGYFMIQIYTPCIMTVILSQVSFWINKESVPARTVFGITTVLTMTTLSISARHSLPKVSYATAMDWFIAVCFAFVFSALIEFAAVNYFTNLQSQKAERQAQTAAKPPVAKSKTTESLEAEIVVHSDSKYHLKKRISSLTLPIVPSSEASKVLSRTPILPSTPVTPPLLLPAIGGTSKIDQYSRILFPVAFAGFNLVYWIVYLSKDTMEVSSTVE
# T1 sequence (P63079 26-473): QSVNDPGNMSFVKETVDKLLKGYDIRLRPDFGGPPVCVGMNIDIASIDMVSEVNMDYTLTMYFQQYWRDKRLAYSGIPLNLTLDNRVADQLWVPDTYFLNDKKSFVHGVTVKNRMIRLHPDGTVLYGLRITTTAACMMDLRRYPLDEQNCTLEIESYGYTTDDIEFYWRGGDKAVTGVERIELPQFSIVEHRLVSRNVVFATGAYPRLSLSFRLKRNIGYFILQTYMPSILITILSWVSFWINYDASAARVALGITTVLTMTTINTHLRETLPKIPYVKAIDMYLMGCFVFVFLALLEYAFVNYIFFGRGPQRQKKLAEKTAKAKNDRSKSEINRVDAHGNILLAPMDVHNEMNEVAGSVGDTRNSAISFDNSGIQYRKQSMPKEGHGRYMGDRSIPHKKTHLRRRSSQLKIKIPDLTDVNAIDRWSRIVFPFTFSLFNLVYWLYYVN
# T1 sequence (P18506 25-449 partner): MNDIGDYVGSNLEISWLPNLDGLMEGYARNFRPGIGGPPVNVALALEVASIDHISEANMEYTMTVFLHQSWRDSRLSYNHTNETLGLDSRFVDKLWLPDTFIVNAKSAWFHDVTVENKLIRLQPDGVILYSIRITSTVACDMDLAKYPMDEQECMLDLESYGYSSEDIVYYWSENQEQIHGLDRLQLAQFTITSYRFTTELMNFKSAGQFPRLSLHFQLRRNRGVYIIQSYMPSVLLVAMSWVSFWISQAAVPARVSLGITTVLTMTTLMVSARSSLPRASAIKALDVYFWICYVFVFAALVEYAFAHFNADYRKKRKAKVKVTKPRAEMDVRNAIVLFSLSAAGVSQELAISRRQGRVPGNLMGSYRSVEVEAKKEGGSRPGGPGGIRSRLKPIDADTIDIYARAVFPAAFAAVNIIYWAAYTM
smiles,measurement,setting,value
"COc1ccc(-n2nc3c4ccc(OC)cc4[nH]cc-3c2=O)cc1 [Compound 6, 7-Methoxy-2-(4-methoxyphenyl)-2,5-dihydro-3H-pyrazolo[4,3-c]quinolin-3-one]",half-life,[1],2.92 h
same,sedation,"mice, step-down latency",neither displayed any significant sedation
same,stereotypy climbing behaviors induced by apomorphine,[2],did not affect
same,grip strength,[3],did not affect
"[2H]C([2H])([2H])Oc1ccc(-n2nc3c4ccc(OC)cc4[nH]cc-3c2=O)cc1 [DK-I-56-1, 7-Methoxy-2-(4-methoxy-d3-phenyl)-2,5-dihydro-3H-pyrazolo[4,3-c]quinolin-3-one]",total concentrations in mouse brain,[4]; 10 mg/kg i.p.,submicromolar
same,maximum concentration in mouse brain,[4]; 30 mg/kg i.p.,7.5 µmol/L
"[2H]C([2H])([2H])Oc1ccc2c3nn(-c4ccc(OC)nc4)c(=O)c-3c[nH]c2c1 [DK-I-86-1, 7-Methoxy-d3-2-(6-methoxypyridin-3-yl)-2,5-dihydro-3H-pyrazolo[4,3-c]quinolin-3-one]",Receptor potentiation in the α6β3δ receptor,"α1,4,6β3δ receptors",modulated
